Measurements reported in patent US20100222302A1, “Novel Antibacterial Compounds” (priority 2005, published 2010).
Converted amounts (≈) assume the structure as drawn.

Experiments:
Experiment in all cases: MIC by broth microdilution (NCCLS M7-A4)
Format in all cases: cell-based
M catarrhalis A894 = details: cation-adjusted Mueller-Hinton Broth, pH 7.2-7.3
Procedure: (§1) These assays have been performed following the description given in “Methods for dilution Antimicrobial Susceptibility Tests for Bacteria that Grow Aerobically, 4th ed.; Approved standard: NCCLS Document M7-A4; National Committee for Clinical Laboratory Standards Villanova, Pa., USA, 1997”. Minimal inhibitory concentrations (MICs; mg/l) were determined in cation-adjusted Mueller-Hinton Broth (BBL) by a microdilution method following NCCLS guidelines (National Committee for Clinical Laboratory Standards. Methods for Dilution Antimicrobial Susceptibility). The pH of the test medium was 7.2-7.3. All the above Examples were tested against several Gram positive and Gram negative bacteria.

S Pneunoniae 49619 = details: cation-adjusted Mueller-Hinton Broth, pH 7.2-7.3
Procedure: as §1

S. aureus A798 = details: Staphylococcus aureus, cation-adjusted Mueller-Hinton Broth, pH 7.2-7.3
Procedure: as §1

Row | SMILES | MIC (M catarrhalis A894) [µg/mL] | MIC (S Pneunoniae 49619) [µg/mL] | MIC (S. aureus A798) [µg/mL]
1 | O=C(O)c1cn(C2CC2)c2c3c(c(F)cc2c1=O)N1C[C@](O)(COc2ccc(N4C[C@H](Cn5ccnn5)OC4=O)cc2F)C[C@H]1CO3 [Example 1, (13S,16S)-1-cyclopropyl-7-fluoro-16-[2-fluoro-4-((5R)-2-oxo-5-[1,2,3]triazol-1-ylmethyl-oxazolidin-3-yl)-phenoxymethyl]-16-hydroxy-4-oxo-1,4,13,15,16,17-hexahydro-12H-11-oxa-1,14-diaza-cyclopenta[a]phenanthrene-3-carboxylic acid] | ≤ 0.063 | ≤ 0.063 | ≤ 0.063
2 | O=C(O)c1cn(C2CC2)c2c3c(c(F)cc2c1=O)N1C[C@](O)(COc2ccc(N4C[C@H](Cn5ccnn5)OC4=O)cc2F)C[C@@H]1CO3 [Example 4, (13R,16S)-1-cyclopropyl-7-fluoro-16-[2-fluoro-4-((5R)-2-oxo-5-[1,2,3]triazol-1-ylmethyl-oxazolidin-3-yl)-phenoxymethyl]-16-hydroxy-4-oxo-1,4,13,15,16,17-hexahydro-12H-11-oxa-1,14-diaza-cyclopenta[a]phenanthrene-3-carboxylic acid] | 0.25 (≈ 0.384 µM) | ≤ 0.063 | ≤ 0.063
3 | CC(=O)NC[C@H]1CN(c2ccc(OC[C@]3(O)C[C@H]4COc5c(c(F)cc6c(=O)c(C(=O)O)cn(C7CC7)c56)N4C3)c(F)c2)C(=O)O1 [Example 2, (13S,16S)-16-{4-[(5S)-5-(acetylamino-methyl)-2-oxo-oxazolidin-3-yl]-2-fluoro-phenoxymethyl}-1-cyclopropyl-7-fluoro-16-hydroxy-4-oxo-1,4,13,15,16,17-hexahydro-12H-11-oxa-1,14-diaza-cyclopenta[a]phenanthrene-3-carboxylic acid] | ≤ 0.063 | ≤ 0.063 | ≤ 0.063
